Assay results from PMC12508063, “Chloroindazole based estrogen receptor β ligands with favorable pharmacokinetics promote functional remyelination and visual recovery” (Scientific Reports, 2025).
“And” between values parts separate entries of the source, which are not always exact repeats. Equal values may be shown once.

Assays:
ERβ = target: T1, ERβ (Homo sapiens, UniProt Q92731); experiment: ER reporter gene assay in HEK 293 T cells (ER-luciferase reporter); assay type: cell-based; settings: for Reporter gene assay raw data, ERb: ERb data block (head r19), 4 replicate columns; for ERb reporter gene assay raw data (response): four replicate columns per compound
T1 construct: expressed in transfected cells; host or cells: HEK 293 T cells

ERα = target: T2, ERα (Homo sapiens, UniProt P03372); experiment: as above; assay type: cell-based; settings: for Reporter gene assay raw data, ERa: 4 replicate columns
T2 construct: expressed in transfected cells; host or cells: HEK 293 T cells
T2 sequence (P03372 1-595): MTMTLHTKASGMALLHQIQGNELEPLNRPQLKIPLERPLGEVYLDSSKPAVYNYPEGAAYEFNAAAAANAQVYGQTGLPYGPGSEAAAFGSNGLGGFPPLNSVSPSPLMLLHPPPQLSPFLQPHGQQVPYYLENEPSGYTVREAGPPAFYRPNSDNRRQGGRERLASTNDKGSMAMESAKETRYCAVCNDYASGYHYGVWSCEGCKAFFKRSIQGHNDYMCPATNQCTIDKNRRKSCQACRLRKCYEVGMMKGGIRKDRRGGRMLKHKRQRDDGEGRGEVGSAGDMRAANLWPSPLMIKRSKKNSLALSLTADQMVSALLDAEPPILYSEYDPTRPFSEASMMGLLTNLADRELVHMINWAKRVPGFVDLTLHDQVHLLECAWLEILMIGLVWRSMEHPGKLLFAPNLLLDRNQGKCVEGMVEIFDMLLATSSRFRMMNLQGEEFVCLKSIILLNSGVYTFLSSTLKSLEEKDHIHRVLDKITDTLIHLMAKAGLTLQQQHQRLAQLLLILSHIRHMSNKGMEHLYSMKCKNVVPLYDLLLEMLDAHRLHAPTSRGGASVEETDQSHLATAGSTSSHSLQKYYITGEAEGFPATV

T1 sequence (Q92731 whole entry, species assumed): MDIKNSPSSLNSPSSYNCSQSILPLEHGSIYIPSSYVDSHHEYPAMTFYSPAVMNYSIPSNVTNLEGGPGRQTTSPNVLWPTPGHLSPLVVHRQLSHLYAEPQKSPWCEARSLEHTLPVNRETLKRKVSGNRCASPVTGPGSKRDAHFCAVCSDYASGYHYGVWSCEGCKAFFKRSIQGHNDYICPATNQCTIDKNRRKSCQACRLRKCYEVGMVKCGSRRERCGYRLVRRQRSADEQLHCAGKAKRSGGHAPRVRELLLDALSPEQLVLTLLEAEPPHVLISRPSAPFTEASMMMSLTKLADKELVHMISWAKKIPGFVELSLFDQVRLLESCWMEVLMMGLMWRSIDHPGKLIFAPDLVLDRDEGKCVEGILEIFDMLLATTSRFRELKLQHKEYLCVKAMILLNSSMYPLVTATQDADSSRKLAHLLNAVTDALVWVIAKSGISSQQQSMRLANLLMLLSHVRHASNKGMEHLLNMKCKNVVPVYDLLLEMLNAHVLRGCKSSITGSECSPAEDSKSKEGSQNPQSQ

Reporter gene assay raw data, ERb (ERβ; Log M -10.7721): 2.426 and 2.349 and 4.55 and 3.395
ERb reporter gene assay raw data (response) (ERβ; Log M -10.7721): 3.239 and 2.8663 and 1.689 and 3.053
Reporter gene assay raw data, ERb (ERβ; Log M -11.248): 1.344 and 1.212 and 1.016 and 0.8144
ERb reporter gene assay raw data (response) (ERβ; Log M -11.248): 2.211 and 0.8495 and 0.02026 and 1.717
Reporter gene assay raw data, ERa (ERα; Log M -9.34008, first ERa data block (head r2)): 7.216 and 7.17 and 5.351 and 7.624
Reporter gene assay raw data, ERa (ERα; Log M -9.34008, second ERa data block (head r34)): 6.164 and 5.9134 and 5.736 and 5.474
Reporter gene assay raw data, ERa (ERα; Log M -9.81816, first ERa data block (head r2)): 1.823 and 1.931 and 1.019 and 2.136
Reporter gene assay raw data, ERa (ERα; Log M -9.81816, second ERa data block (head r34)): 0.6247 and 1.953 and 0.3211 and 0.779
Reporter gene assay raw data, ERa (ERα; Log M -10.2941, first ERa data block (head r2)): 1.733 and 1.446 and -0.6404 and -0.6096
Reporter gene assay raw data, ERa (ERα; Log M -10.2941, second ERa data block (head r34)): -0.6765 and 0.406 and -1.087 and 0.2814
Reporter gene assay raw data, ERa (ERα; Log M -10.7721, second ERa data block (head r34)): -1.593 and -1.3667 and -0.9474 and 0.114
Reporter gene assay raw data, ERa (ERα; Log M -11.248, first ERa data block (head r2)): -1.205 and 0.7176 and 0.3903 and 0.3615
ERa reporter gene assay raw data (response) (ERα; Log M -13, four replicate columns per compound): 0.8253 and -0.8253 and 1.478 and -1.478
Structure (SMILES): Oc1ccc(-n2nc3ccc(O)cc3c2Cl)cc1 [Compound K-101]
Reporter gene assay raw data, ERb (ERβ; Log M -6): 120.988 and 116.157 and 143.98 and 147.219
ERb reporter gene assay raw data (response) (ERβ; Log M -6): 111.44 and 122.263 and 112.615 and 103.371
Reporter gene assay raw data, ERb (ERβ; Log M -6.47756): 114.841 and 114.867 and 137.295 and 151.298
ERb reporter gene assay raw data (response) (ERβ; Log M -6.47756): 99.9004 and 104.917 and 98.5023 and 107.756
Reporter gene assay raw data, ERb (ERβ; Log M -6.95468): 124.443 and 116.848 and 139.382 and 142.558
ERb reporter gene assay raw data (response) (ERβ; Log M -6.95468): 103.919 and 109.742 and 107.029 and 112.5
Reporter gene assay raw data, ERb (ERβ; Log M -7.4318): 110.594 and 113.713 and 119.524 and 142.929
ERb reporter gene assay raw data (response) (ERβ; Log M -7.4318): 106.837 and 108.962 and 105.441 and 101.954
Reporter gene assay raw data, ERb (ERβ; Log M -7.91009): 112.17 and 111.487 and 138.169 and 129.452
ERb reporter gene assay raw data (response) (ERβ; Log M -7.91009): 109.149 and 102.176 and 94.3567 and 106.552
Reporter gene assay raw data, ERb (ERβ; Log M -8.3851): 117.284 and 114.634 and 116.673 and 134.281
ERb reporter gene assay raw data (response) (ERβ; Log M -8.3851): 104.39 and 105.189 and 99.3517 and 108.832
Reporter gene assay raw data, ERb (ERβ; Log M -8.86328): 116.233 and 118.325 and 116.611 and 129.233
ERb reporter gene assay raw data (response) (ERβ; Log M -8.86328): 100.866 and 91.0385 and 99.5048 and 94.2764
Reporter gene assay raw data, ERb (ERβ; Log M -9.34008): 83.1588 and 87.5707 and 97.8302 and 99.1529
ERb reporter gene assay raw data (response) (ERβ; Log M -9.34008): 78.6235 and 76.3041 and 74.4798 and 84.9468
Reporter gene assay raw data, ERb (ERβ; Log M -9.81816): 46.3463 and 45.2097 and 53.3712 and 57.2512
ERb reporter gene assay raw data (response) (ERβ; Log M -9.81816): 51.4383 and 42.8216 and 46.1589 and 42.3832
Reporter gene assay raw data, ERb (ERβ; Log M -10.2941): 13.5511 and 13.5131 and 21.4772 and 19.6971
ERb reporter gene assay raw data (response) (ERβ; Log M -10.2941): 11.6805 and 12.8501 and 11.4455 and 13.5515
ERb reporter gene assay raw data (response) (ERβ; Log M -13): 0.5566 and -0.5566 and 0.8119 and -0.8119
Reporter gene assay raw data, ERa (ERα; Log M -6, first ERa data block (head r2)): 104.545 and 98.5711 and 90.2001 and 86.8078
Reporter gene assay raw data, ERa (ERα; Log M -6, second ERa data block (head r34)): 95.025 and 94.1762 and 88.9253 and 94.8982
Reporter gene assay raw data, ERa (ERα; Log M -6.47756, first ERa data block (head r2)): 85.5888 and 84.856 and 83.9539 and 86.1821
Reporter gene assay raw data, ERa (ERα; Log M -6.47756, second ERa data block (head r34)): 88.8265 and 82.9979 and 83.8682 and 89.3798
Reporter gene assay raw data, ERa (ERα; Log M -6.95468, first ERa data block (head r2)): 74.2269 and 77.1348 and 79.6996 and 75.9439
Reporter gene assay raw data, ERa (ERα; Log M -6.95468, second ERa data block (head r34)): 78.2124 and 79.7922 and 76.8721 and 73.4179
Reporter gene assay raw data, ERa (ERα; Log M -7.4318, first ERa data block (head r2)): 58.4425 and 53.4049 and 54.6387 and 66.4913
Reporter gene assay raw data, ERa (ERα; Log M -7.4318, second ERa data block (head r34)): 66.1364 and 63.6537 and 63.2155 and 63.5605
Reporter gene assay raw data, ERa (ERα; Log M -7.91009, first ERa data block (head r2)): 54.5242 and 53.4131 and 49.5391 and 50.4679
Reporter gene assay raw data, ERa (ERα; Log M -7.91009, second ERa data block (head r34)): 55.1309 and 61.6988 and 46.1658 and 50.4053
Reporter gene assay raw data, ERa (ERα; Log M -8.3851, first ERa data block (head r2)): 36.2798 and 37.8765 and 41.0912 and 38.4728
Reporter gene assay raw data, ERa (ERα; Log M -8.3851, second ERa data block (head r34)): 40.2636 and 45.8507 and 39.6541 and 35.9505
Reporter gene assay raw data, ERa (ERα; Log M -8.86328, first ERa data block (head r2)): 20.0299 and 22.3737 and 21.1668 and 19.8353
Reporter gene assay raw data, ERa (ERα; Log M -8.86328, second ERa data block (head r34)): 25.3166 and 18.7166 and 21.7026 and 19.2485
Reporter gene assay raw data, ERa (ERα; Log M -10.7721, first ERa data block (head r2)): -0.886 and -0.01848 and -1.926 and -0.988
Reporter gene assay raw data, ERa (ERα; Log M -11.248, second ERa data block (head r34)): -1.908 and -0.2669 and 0.1993 and -0.8382
